# Data published in patent publication US20230096663A1, “FARNESOID X RECEPTOR MODULATING COMPOUNDS AND METHODS OF USING THE SAME” (Inorbit Therapeutics AB, priority 2020, published 2023).
# Assays:
# [1] = target: T1, Human FXR receptor (NR1H4) (Homo sapiens, UniProt Q96RI1); experiment: Human Farnesoid X Receptor (NR1H4, FXR) reporter assay; assay type: cell-based
# T1 sequence (Q96RI1 1-486): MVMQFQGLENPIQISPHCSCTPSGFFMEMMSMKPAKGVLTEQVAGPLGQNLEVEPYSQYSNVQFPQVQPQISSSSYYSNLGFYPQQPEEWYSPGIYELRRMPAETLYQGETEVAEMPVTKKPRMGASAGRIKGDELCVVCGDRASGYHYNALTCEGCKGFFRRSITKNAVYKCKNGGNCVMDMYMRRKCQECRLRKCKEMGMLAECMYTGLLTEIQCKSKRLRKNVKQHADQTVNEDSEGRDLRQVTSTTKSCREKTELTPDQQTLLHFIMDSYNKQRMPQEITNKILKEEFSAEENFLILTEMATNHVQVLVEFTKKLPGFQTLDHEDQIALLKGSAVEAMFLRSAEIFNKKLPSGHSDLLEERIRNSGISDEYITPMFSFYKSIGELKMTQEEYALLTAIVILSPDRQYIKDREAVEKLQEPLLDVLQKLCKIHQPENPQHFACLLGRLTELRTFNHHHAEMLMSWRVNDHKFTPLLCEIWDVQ
# From the text: Determination of a ligand mediated Gal4 promoter driven transactivation to quantify ligand binding mediated activation of FXR. A FXR Reporter Assay kit was purchased from Indigo Bioscience (#IB00601-32) to determine the potency and efficacy of compounds that can induce FXR activation. The nuclear receptor assay system utilizes non-human mammalian cells engineered to provide constitutive high level expression of Human FXR receptor (NR1H4), a ligand-dependent transcription factor. The reporter cells include luciferase reporter gene functionality linked to an FXR-response promoter. Quantifying changes in luciferase expression in the treated reporter cells provides a sensitive surrogate measure of the changes in FXR activity. […] Luminescence intensity of the reaction is quantified using a luminometer, and is reported in terms of Relative Light Units (RLU's). […] After incubation, the media was carefully removed, Luciferase detection solution was added and the plate read in a Luminometer. The data was calculated as per kit instructions, with increases in luminescence being directly proportional to increases in compound agonist activity.
# [2] = system: FXR related genes (BSEP, SHP) in primary human hepatocytes; experiment: Gene expression in human primary hepatocytes (BSEP, SHP); assay type: cell-based; conditions: 24 hours incubation
# Description: The test compound was dissolved in buffer to give a 10 mM stock solution. The compound was serially diluted to the desired concentrations and then incubated with human primary hepatocytes for 24 hours at 37° C. in a CO2 incubator. After incubation, the media was removed and the RNA harvested using the Trizol-CHCl3 method and quantified using Nano drop. The RNA was then Reverse Transcribed to cDNA using a superscript vilo cDNA synthesis kit. The cDNA with respective Taqman primers, master mix are then amplified using quantitative RT-PCR system. […] The compounds of examples 2 and 3 upregulate FXR related and disease relevant genes on incubation with primary human hepatocytes. […] It is a uni-directional, ATP-dependent efflux transporter that plays an important role in the elimination of bile salts from the hepatocyte into the bile canaliculi for export into the gastrointestinal tract. FXR also induces the expression of small heterodimer partner (SHP) which controls a complex set of genes in multiple metabolic pathways. It reduces the expression of CYP7A1, a liver-specific enzyme that catalyzes the first and rate-limiting step in one of the two pathways for bile acid biosynthesis.
# [3] = Metabolism in human microsomes; assay type: in vitro ADME; conditions: 37° C.
# Description: Microsomal mixes (247.5 μL) of human microsomes (1250 μL, 4 mg/ml), potassium phosphate buffer (1250 μL), alamethecin (12.5 μL, 5 mg/ml) and cofactors Nicotinamide Adenine Dinucleotide Phosphate NADPH (1250 μL, 4 mM)/uridine 5′-diphospho-glucuronic acid UDPGA (1250 μL, 4 mM) or UDPGA only were loaded onto a shaker for 10 minutes. The test compound (2.5 μL, 100 μM) was then separately added to both microsomal mixes (i.e., one mix with NADPH and one mix without NADPH), incubated at 37° C. and sampled at predetermined time points. Analysis was performed using a AB SCIEX QTRAP 4500 LC-MS/MS, a Kinetex C18, 50*4.6 mm, 5 μm column and eluting with 10 mM Ammonium Acetate/Methanol.
# Table 3 summarizes the % of compound remaining after 45 minutes of incubation with human microsomes either in the presence of co-factors UDPGA and NADPH or UDPGA only.
# [4] = Metabolic identification in mouse hepatocytes; assay type: in vitro ADME; conditions: up to 120 min
# Description: A 10 mM stock of test compound from Example 2 (sodium 2-(3-((5-cyclopropyl-3-(2-(trifluoromethoxy)phenyl)isoxazol-4-yl)methoxy)-8-azabicyclo[3.2.1]octan-8-yl)-4-fluorobenzo[d]thiazole-6-sulfinate) was prepared in DMSO. 20 μM of final working stock was then prepared by diluting 4 μL of 10 mM stock in 1996 μL of Krebs-Hensleit buffer. 200 μL of hepatocyte cell suspension (2×10^6 cells/mL) was added to TPP 48 well plate and preincubated for 30 min @ 37° C. in incubator. 200 μL of 20 μM working stock of test compound was added to the cell suspension and incubated in an incubator on vibramax at a shaking speed of 500 rpm. For the 0 min sample, 25 μL of hepatocyte suspension was precipitated with 200 μL of acetonitrile and 25 μL of 20 μM test compound was added. The reaction was stopped at 15, 30, 60, 90, 120 min by precipitating 50 μL of incubation mixture with 200 μL of acetonitrile. The samples were vortexed for 5 min at 1200 rpm and centrifuged at 4000 rpm for 10 min. The supernatant was separated, diluted 2 fold with water and analysed using a HPLC (Shimadzu SIL HTS) and mass spectrometer (5500 Qtrap). Acetonitrile and 0.1% formic acid in Milli-q-water were used as the mobile phase, using a column of either Waters Xbridge C18, 250×3.0 mm, 5.0μ particle size or Phenomnex kinetex 5μ EVO C18 100 A, 50×4.6 mm 5.0μ particle size. […]
structure (smiles),measurement,setting,value
"O=S([O-])c1cc(F)c2nc(N3[C@@H]4CC[C@H]3C[C@@H](OCc3c(-c5ccccc5OC(F)(F)F)noc3C3CC3)C4)sc2c1.[Na+] [Example 2, Sodium 2-(3-((5-cyclopropyl-3-(2-(trifluoromethoxy)phenyl)isoxazol-4-yl)methoxy)-8-azabicyclo[3.2.1]octan-8-yl)-4-fluorobenzo[d]thiazole-6-sulfinate]",EC50,"[1]; Human FXR (NR1H4) luciferase reporter assay, 22-24 h",460 nM
same,Efficacy,[1]; normalized to GW4064 set as 100%,119%
same,"Expression of FXR related and disease relevant genes (BSEP, SHP)",[2],upregulate
same,% remaining @ 45 mins of incubation with UDPGA,[3]; co-factor UDPGA only,94%
same,% remaining @ 45 mins of incubation with UDPGA and NADPH,[3]; co-factors UDPGA and NADPH,52%
same,Acyl-Glucuronide,[4],No
same,Observed Major Metabolites,[4],"Hydroxy, Di-hydroxy and Alkenyl-hydroxy"
